What was measured:
[1] = test system: Mas-related G protein coupled receptor X2; parameters: method as in PMID 30048896; conditions: cited from earlier work
[2] = Pharmacokinetic study in rats after a single intravenous administration of concentrated Kudiezi injection (HPLC-MS/MS of plasma); assay type: in vivo, Sprague-Dawley rats; conditions: male, Sprague-Dawley, rat, plasma, iv, 3.6 mL/kg, single i.v. 3.6 mL/kg of 15 times concentrated KI, mean ± SD; for AUC(0-inf) / clearance / half-life: n = 5; for AUC(0-t): n = 5, read-out: AUC0-t; for MRT last: n = 5, read-out: MRT0-t; for MRT inf: n = 5, read-out: MRT0-∞; for Vd: n = 5, read-out: Vd
Experimental: Eight male Sprague-Dawley rats (200 ± 20 g) were obtained from Laboratory Animal Center of Fujian Medical University (Fuzhou, China). The animal studies were conducted in accordance with the Guide for the Care and Use of Laboratory Animals published by the USA National Institutes of Health (NIH Publication No. 85-23, revised 1996) and were approved by the Animal Ethic Review Committee of Fujian Medical University (Fuzhou, China). The rats were housed in rat cages (48 × 29 × 18 cm^3), in a unidirectional airflow room at a temperature of 22 ± 2 °C, a relative humidity of 40–70% and a 12 h light/dark cycle. They were fed with freely available commercial food and filtered tap water, and fasted with free access to water for 12 h before the experiments. Three of these rats were selected randomly as blank group with the above mentioned feeding conditions and without administration of drug, and after 24 h from the beginning of the experiment, their blood was collected up exhaustively from abdominal aorta to provide blank plasma for methodological validation. […] All rats were acclimated to the facilities and environment for 7 days before the experiments.
After administration, the rat tail was carefully cleaned with alcohol soaked cotton balls around the injection site to remove the residual drug. Blood was collected from the cut-tail before dosing and at the following time points: 2.5, 5, 10, 15, 20, 30, 45 min and 1, 2, 3, 4, 6, 8, 12 and 24 h after dosing. Plasma was isolated from the blood samples by centrifugation and then stored at −80 °C until analysis.
Noncompartmental pharmacokinetic parameters were calculated by DAS 3.0 software (Version DAS 3.2.8, Chinese Pharmacologic Society, Beijing, China). All the results are expressed as mean ± SD. A single-tailed Student’s t test was performed in the work.

[3] = Stability of the nine components in rat plasma QC samples (auto-sampler, freeze-thaw, long-term); assay type: physicochemical; conditions: n = 5; for 6 h in Auto-Sample, RE: extracted rat plasma; for Freeze-Thaw Stability (Three Cycles), RE / Long-Term Stability (−80 °C, 14 Days), RE: rat plasma
Experimental: The stability of the nine components in rat plasma was investigated under a variety of storage and process conditions. Table 4 summarizes the results of post-preparation (The QC samples were kept in the auto-sampler for 6 h), freeze and thaw and long-term (at −80 °C for 14 days) stability experiments.
Stability of the nine components were assessed under the condition of placing extracted plasma samples in auto-sampler for 6 h, as well as placing plasma samples within freeze-thaw three cycles and at −80 °C for 14 days. LQC, MQC and HQC samples with five replicates at each level were kept at the above conditions and analyzed against freshly prepared calibrators as the reference.

[4] = HQC spiked 2000 ng/mL (4000 ng/mL for II)
[5] = LQC spiked 15 ng/mL (30 ng/mL for II)
[6] = MQC spiked 500 ng/mL (1000 ng/mL for II)

Structure (SMILES)	identified as potential anaphylactoid component in KI [1]	AUC(0-inf) [2] [ng·h/mL]	clearance [2] [mL/min/kg]	half-life [2] [min]	AUC(0-t) [2] [ng·h/mL]	MRT last [2] [min]	MRT inf [2] [min]	Vd [2] [L/kg]	6 h in Auto-Sample, RE [3, 4] [%]	6 h in Auto-Sample, RE [3, 5] [%]	6 h in Auto-Sample, RE [3, 6] [%]	Freeze-Thaw Stability (Three Cycles), RE [3, 4] [%]	Long-Term Stability (−80 °C, 14 Days), RE [3, 4] [%]	Freeze-Thaw Stability (Three Cycles), RE [3, 5] [%]	Long-Term Stability (−80 °C, 14 Days), RE [3, 5] [%]	Freeze-Thaw Stability (Three Cycles), RE [3, 6] [%]	Long-Term Stability (−80 °C, 14 Days), RE [3, 6] [%]
O=C(O)[C@H]1O[C@@H](Oc2cc(O)c3c(=O)cc(-c4ccc(O)c(O)c4)oc3c2)[C@H](O)[C@@H](O)[C@@H]1O [VII, luteolin-7-O-β-D-glucuronide]	potential anaphylactoid components	680 ± 109	95.5	39.6 ± 12	672 ± 107	15 ± 6.6	18 ± 7.2	5.3 ± 1.21	5.65	−7.74	−12.46	9.76	8.01	−10.80	−2.91	−1.08	−0.26
O=C(O)[C@H]1O[C@@H](Oc2cc(O)c3c(=O)cc(-c4ccc(O)cc4)oc3c2)[C@H](O)[C@@H](O)[C@@H]1O [IX, apigenin-7-O-β-D-glucuronide]	potential anaphylactoid components	56.1 ± 8.49	168	4.2 ± 0.6	55.7 ± 8.5	5.4 ± 0.6	5.4 ± 0.6	1 ± 0.24	7.78	−13.77	−1.56	3.36	5.33	−13.08	−2.73	0.53	−0.28

— publication PMC6337671, “Simultaneous Determination of Five Phenolic Acids and Four Flavonoid Glycosides in Rat Plasma Using HPLC-MS/MS and Its Application to a Pharmacokinetic Study after a Single Intravenous Administration of Kudiezi Injection” (Molecules, 2018)
